Data from patent US11911483B2, “Modified self-immolating moieties for use in prodrugs and conjugates and methods of using and making” (BRISTOL-MYERS SQUIBB COMPANY, priority 2018, dated 2024).

Key:
[1] = Blood serum stability in human serum; assay type: in vitro ADME; conditions: 37° C.
Description: (§1) The samples were incubated at 37° C. for 0, 1, 2, 4, and 24 hours. After each of the time points, an aliquot of 20 μl was taken from the samples and quenched with 60 μl of 75:25:0.1 MeOH:acetonitrile:formic acid. After quenching, all samples were held at −20° C. for 1 hour and further centrifuged at 14000 rpm for 15 mins. The supernatant was transferred to a fresh vial and stored at −20° C. until analysis. Samples were analyzed using LC-MS/MS on Agilent 6530 Q-TOF mass spectrometer connected to an Agilent 1290 UPLC. 3 μL of samples were injected onto a Waters BEH C18 Column (2.1×50 mm, 1.7 μm) maintained at 60° C. […] The total run time is 9.5 min.

[2] = Blood serum stability in mouse serum; assay type: in vitro ADME
Description: as §1

Cathepsin B = Cathepsin B (Homo sapiens, UniProt P07858); assay: Cathepsin B cleavage of linkers; assay type: biochemical; conditions: Cathepsin B buffer pH 5.5, 37° C.
Description: The following procedure was used for testing the cathepsin B cleavage of linkers.
7.5 μL of test compound (0.5 mM in DMSO) was transferred to individual tube containing 135 μl of Cathepsin B buffer (25 mM Sodium Acetate, 1 mM EDTA, 1 mM DTT, pH 5.5) and the digestion was started by the addition of 7.5 μl of the diluted Cathepsin B enzyme (Activated, 1.45 μM, 0.1 units). The samples were incubated at 37° C. for 24 h. After 24 h, a 20 μL aliquot was taken and quenched with 80 μL of 75:25:0.1 MeOH:acetonitrile:formic acid. Negative control was also included, without the addition of Cathepsin B. A control compound (structure below) was digested similarly and included as positive control. After quenching, all samples were held at −20° C. for 1 h and further centrifuged at 14,000 rpm for 5 min. The supernatant was transferred to a fresh tube and put in an UPLC autosampler for analysis, per the procedure of the preceding example.
In the above structure, “Tub” denotes a tubulysin analog (Cheng et al., U.S. Pat. No. 8,394,922 B2 (2013). The valine-citrulline (Val-Cit) dipeptide is a known substrate for cathepsin B.

CCCCOc1nc(N)c2nc(O)n(Cc3ccc(CN(CCCC)C(=O)OCc4ccc(NC(=O)[C@H](CCCNC(N)=O)NC(=O)[C@@H](NC(=O)[C@H](CCC(=O)O)NC(=O)CCCCCN5C(=O)C=CC5=O)C(C)C)cc4)cc3)c2n1 [Compound B]
Stability in Human Serum (% cleaved after 24 hours) [1]: 0 % cleaved
Stability in Mouse Serum (% cleaved after 24 hours) ([2]; mouse serum, 37° C., 24 hours): 50 % cleaved
Stability in mouse serum (in words) ([2]; text summary of Table C): unstable in mouse serum
Cathepsin B Cleavage (% cleaved after 24 hours) (Cathepsin B): 100 % cleaved
